In ChEMBL document CHEMBL1201862, “PubChem BioAssay data set” (2004):
Active and inactive are the calls of the source.

Columns and labels:
[1] = HGIII-sPLA2 enzyme inhibition potency – biochemical, QFRET, IC50, dose response (AID 743457);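 further: green fluorescence rise as the enzyme cleaves BODIPY PC-A2 in liposomes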
[2] = Trypanosoma cruzi growth suppression in host cells – NIH3T3 host cells, beta-gal luminescence, confirmation (AID 2044); type: functional, cell-based;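 further: intracellular parasites grown in NIH/3T3 mouse fibroblasts as host cells; luminescent beta-galactosidase reporter signal from transgenic T. cruzi replicating inside host cells; inhibitors lower the luminescence signal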
[3] = NIH3T3 cell viability loss – ATP luminescence, mouse fibroblasts, counter-screen, dose response (AID 2010); type: functional, cell-based;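 further: cells exposed to compound for about 90 hours before reading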
[4] = viability loss in HeLa cells – cytotoxicity control for MgcRacGAP inhibitor project, dose response (AID 624300); type: functional
[5] = molecular target: T1, Rac GTPase-activating protein 1 (Homo sapiens, UniProt Q9H0H5); test: blockers of MgcRacGAP-driven Rac1 GTP hydrolysis – biochemical, ADP Hunter fluorescence, primary and confirmatory, confirmation (AID 624330); type: functional
T1 sequence (Q9H0H5 whole entry): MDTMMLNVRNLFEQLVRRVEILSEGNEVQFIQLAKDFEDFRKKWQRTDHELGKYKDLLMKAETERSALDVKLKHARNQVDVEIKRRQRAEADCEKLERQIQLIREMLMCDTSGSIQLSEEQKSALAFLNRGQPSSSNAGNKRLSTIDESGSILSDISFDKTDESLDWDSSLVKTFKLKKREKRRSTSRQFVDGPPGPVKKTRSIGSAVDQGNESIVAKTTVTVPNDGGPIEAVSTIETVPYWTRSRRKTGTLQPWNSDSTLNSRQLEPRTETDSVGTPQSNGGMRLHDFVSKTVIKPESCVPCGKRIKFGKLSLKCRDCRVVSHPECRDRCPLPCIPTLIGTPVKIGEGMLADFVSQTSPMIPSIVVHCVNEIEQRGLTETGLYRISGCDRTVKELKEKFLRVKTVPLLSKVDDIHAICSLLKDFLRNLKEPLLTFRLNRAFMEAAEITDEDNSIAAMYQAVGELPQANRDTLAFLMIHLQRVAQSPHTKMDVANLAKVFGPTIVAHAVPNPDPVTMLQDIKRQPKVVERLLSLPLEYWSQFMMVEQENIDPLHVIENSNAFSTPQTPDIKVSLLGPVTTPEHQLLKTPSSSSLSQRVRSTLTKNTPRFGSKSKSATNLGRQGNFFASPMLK

[6] = molecular target: T2, Corticotropin-releasing factor receptor 2/Corticotropin-releasing factor-binding protein (Homo sapiens, UniProt P24387+Q13324); test: Dose Response confirmation of uHTS hits for small molecule antagonists of the CRF-binding protein and CRF-R2 receptor complex.; type: functional; settings: read-out: IC50_Mean
T2 sequence (Q13324 whole entry): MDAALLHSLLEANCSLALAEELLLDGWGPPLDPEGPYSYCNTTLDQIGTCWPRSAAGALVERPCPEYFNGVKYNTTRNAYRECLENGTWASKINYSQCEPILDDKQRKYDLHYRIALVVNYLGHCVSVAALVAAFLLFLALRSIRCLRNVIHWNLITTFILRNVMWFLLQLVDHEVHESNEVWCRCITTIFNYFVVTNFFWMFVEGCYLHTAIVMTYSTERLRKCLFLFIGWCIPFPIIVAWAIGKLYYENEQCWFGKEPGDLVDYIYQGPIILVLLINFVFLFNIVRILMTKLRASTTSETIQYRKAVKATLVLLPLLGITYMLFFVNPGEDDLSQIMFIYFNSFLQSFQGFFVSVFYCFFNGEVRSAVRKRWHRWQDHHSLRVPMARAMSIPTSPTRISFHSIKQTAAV
T2 sequence (P24387 whole entry): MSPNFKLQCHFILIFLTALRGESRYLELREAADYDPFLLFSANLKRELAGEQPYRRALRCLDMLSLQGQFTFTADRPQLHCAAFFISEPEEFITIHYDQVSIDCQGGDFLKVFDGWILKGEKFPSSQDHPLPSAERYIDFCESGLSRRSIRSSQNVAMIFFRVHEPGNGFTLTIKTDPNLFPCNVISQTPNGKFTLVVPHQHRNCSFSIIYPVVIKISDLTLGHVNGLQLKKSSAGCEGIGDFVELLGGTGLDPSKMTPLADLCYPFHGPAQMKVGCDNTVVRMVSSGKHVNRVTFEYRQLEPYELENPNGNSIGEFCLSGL

[7] = molecular target: T2, Corticotropin-releasing factor receptor 2/Corticotropin-releasing factor-binding protein; test: activators of CRF receptor 2 with binding protein – uHTS hits, confirmation (AID 602473); type: functional; settings: read-out: EC50_Mean
[8] = molecular target: DNA repair protein RAD52 homolog (Homo sapiens, UniProt P43351); type: functional, biochemical
[9] = mouse fibroblast viability loss – cell-based, cherry-pick samples, set 2, cytotoxicity control for T. cruzi growth inhibitor project, dose response (AID 651817); type: functional; settings: NIH3T3
[10] = intracellular Trypanosoma cruzi inhibitors in host cells – cell-based, plate reader, cherry-pick samples, set 3, dose response (AID 651818); type: functional;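 further: compounds incubated with infected cells for about four days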
[11] = Luminescence Cell-Based Dose Response HTS to Identify Activators of Luciferase Translation or Activity in H4 […] Cells. [Related pubchem assays: 1829 (Project Summary), 1814 (Primary HTS)]; type: functional
H4 = test: Luminescence Cell-Based Dose Response HTS to Identify Activators of 5'UTR Stem-Loop Driven Prion Protein mRNA Translation in H4 Neuroglioblastoma Cells. [Related pubchem assays: 1829 (Project Summary), 1814 (Primary HTS)]; type: functional; settings: Homo sapiens
[12] = molecular target: T3, Heat shock factor protein 1 (Mus musculus, UniProt P38532); test: decrease of HSF1-responsive luciferase luminescence – cell-based, NIH3T3, dose retest, confirmation (AID 2382); type: functional;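 further: NIH3T3 fibroblasts with HSF1-driven luciferase reporter stressed by proteasome inhibitor MG132; luminescence from HSF1-driven luciferase expression after 8 hours of MG132 stress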
T3 sequence (P38532 whole entry): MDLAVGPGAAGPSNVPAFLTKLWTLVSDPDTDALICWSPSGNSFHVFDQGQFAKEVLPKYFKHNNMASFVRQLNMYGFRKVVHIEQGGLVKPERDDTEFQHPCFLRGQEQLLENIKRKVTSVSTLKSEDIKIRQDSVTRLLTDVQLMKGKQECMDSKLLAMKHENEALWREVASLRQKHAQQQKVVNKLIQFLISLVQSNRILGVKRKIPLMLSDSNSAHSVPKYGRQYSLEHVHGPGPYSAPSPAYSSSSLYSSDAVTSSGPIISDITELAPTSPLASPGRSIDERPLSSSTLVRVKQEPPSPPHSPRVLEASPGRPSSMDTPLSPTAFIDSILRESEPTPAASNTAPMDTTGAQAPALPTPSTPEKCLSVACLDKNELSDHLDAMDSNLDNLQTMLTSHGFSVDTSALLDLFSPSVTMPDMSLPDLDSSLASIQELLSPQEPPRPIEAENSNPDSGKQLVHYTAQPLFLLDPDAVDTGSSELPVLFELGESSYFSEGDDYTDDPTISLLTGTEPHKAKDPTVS

[13] = THP-1 cell cytotoxicity, dose response, cytotoxicity control for non-replicating M. tuberculosis project (AID 489025); type: functional
[14] = HepG2 cell cytotoxicity, dose response, cytotoxicity control for non-replicating M. tuberculosis project (AID 489018); type: functional; settings: Mycobacterium tuberculosis
[15] = Vero E6 cell cytotoxicity, dose response, cytotoxicity control for non-replicating M. tuberculosis project, secondary assay (AID 492998); type: functional, VeroE6; settings: Vero C1008
HEK293 = test: cells; type: functional, cell-based; settings: Homo sapiens
[16] = molecular target: T4, Nuclear receptor subfamily 0 group B member 1 (Homo sapiens, UniProt P51843); test: Luminescence-based cell-based high throughput dose response assay for inhibitors of the orphan nuclear receptor subfamily 0, group B, member 1 (DAX1; NR0B1). [Related pubchem assays (depositor defined):AID504766, AID504790]; type: functional
T4 sequence (P51843 whole entry): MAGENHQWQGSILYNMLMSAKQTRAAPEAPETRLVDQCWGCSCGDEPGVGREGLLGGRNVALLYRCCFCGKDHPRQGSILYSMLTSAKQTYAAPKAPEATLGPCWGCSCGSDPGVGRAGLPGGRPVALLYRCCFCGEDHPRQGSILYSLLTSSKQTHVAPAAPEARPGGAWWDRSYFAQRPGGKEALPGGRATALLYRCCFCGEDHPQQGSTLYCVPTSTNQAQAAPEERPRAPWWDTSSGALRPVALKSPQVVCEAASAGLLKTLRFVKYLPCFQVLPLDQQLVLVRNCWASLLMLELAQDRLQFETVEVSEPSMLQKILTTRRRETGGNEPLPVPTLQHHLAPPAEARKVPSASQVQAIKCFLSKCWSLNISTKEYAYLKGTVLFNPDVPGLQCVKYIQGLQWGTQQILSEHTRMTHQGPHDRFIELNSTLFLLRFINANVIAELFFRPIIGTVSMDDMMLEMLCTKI

[17] = viability loss in HepG2 hepatoma cells – cell-based, ATP luminescence, cherry-pick, activator set 2, cytotoxicity control, dose response (AID 1053143); type: functional
HeLa = test: viability loss in HeLa cells – cell-based, ATP luminescence, cherry-pick samples, cytotoxicity control, dose response (AID 687004); type: functional; settings: Homo sapiens
cells [18] = type: functional, cell-based
[19] = molecular target: T5, Trace amine-associated receptor 1 (Homo sapiens, UniProt Q96RJ0); test: Fluorescence-based cell-based high throughput dose response assay to identify agonists of the human trace amine associated receptor 1 (TAAR1).; type: functional
T5 sequence (Q96RJ0 whole entry): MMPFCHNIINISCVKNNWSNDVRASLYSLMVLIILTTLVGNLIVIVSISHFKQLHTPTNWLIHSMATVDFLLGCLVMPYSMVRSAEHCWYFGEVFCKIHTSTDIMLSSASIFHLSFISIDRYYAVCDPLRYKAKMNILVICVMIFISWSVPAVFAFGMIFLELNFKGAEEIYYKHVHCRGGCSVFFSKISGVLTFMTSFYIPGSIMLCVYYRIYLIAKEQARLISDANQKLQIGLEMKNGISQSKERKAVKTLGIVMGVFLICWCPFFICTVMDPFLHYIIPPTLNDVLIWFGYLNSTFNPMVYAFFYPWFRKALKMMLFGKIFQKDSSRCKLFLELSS

[20] = molecular target: T5, Trace amine-associated receptor 1; test: Counterscreen for agonists of the human trace amine associated receptor 1 (hTAAR1): Fluorescence-based cell-based high throughput dose response assay to identify hTAAR1 agonist that also desensitize TAAR1 receptor response.; type: functional
cells [21] = type: functional, cell-based; remark: listed apart in the source
Cytochrome P450 2D6 = Cytochrome P450 2D6 (Homo sapiens, UniProt P10635);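 further: CYP2D6 member of a cytochrome P450 panel assay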
Chain of Cytochrome P450 2D6 (P10635 whole entry): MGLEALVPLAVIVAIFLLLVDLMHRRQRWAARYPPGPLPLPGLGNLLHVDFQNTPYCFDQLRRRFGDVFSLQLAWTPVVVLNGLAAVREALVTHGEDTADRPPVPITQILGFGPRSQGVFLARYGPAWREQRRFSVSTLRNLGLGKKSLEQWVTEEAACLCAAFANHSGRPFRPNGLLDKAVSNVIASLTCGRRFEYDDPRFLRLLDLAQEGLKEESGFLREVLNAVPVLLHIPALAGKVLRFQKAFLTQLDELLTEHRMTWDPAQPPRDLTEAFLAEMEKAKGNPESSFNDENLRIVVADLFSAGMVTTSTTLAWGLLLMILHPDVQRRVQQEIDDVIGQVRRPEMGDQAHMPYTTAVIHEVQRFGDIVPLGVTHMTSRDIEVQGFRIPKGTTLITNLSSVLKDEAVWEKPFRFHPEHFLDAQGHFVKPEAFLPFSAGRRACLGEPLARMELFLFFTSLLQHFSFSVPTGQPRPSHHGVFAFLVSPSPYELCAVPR

Chain of DNA repair protein RAD52 homolog (P43351 whole entry): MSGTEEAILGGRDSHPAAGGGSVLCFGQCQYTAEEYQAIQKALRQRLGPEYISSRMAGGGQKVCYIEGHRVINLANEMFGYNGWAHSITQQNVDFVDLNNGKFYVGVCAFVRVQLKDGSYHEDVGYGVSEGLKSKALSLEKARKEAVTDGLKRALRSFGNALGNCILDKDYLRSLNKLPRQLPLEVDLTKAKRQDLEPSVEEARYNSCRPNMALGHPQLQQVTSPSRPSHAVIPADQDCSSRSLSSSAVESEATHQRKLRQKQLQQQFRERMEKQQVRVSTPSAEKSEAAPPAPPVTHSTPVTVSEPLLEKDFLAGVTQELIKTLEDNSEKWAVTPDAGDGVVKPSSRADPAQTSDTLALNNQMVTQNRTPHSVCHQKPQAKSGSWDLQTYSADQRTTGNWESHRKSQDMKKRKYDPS

For Fc1ccc(-n2c(S)nnc2-c2ccc3c(c2)OCO3)cc1Cl, the IC50 [1] was > 122 µM (inactive).

For COCc1cc([S+]([O-])c2ccc(Cl)cc2)nc(C)n1 (configuration not stated), the EC50 [2] was 1.78 µM (active), the EC50 [3] was > 60 µM (not active) and the CC50 [4] was 95 µM (active). The IC50 [5] was 87.8 µM (active).

For Cc1ccc(-c2c[n+](CC(=O)Nc3nc(-c4ccc(F)cc4)cs3)c3n2CCC3)cc1, the IC50 [6] was > 47.1 µM (inactive), the EC50 [7] was > 53 µM (inactive) and the AC50 [8] was 11.2 µM (active).

In the case of C[C@H](CO)N1C[C@H](C)[C@@H](CN(C)Cc2ccccc2)Oc2c(NC(=O)c3ccncc3)cccc2C1=O, the AC50 [9] is reported as 39 µM (inactive) and the AC50 [10] is reported as 0.179 µM (active).

With Nc1ccccc1C(=O)NNC1=C(C(=O)C(F)(F)F)CCC1 the EC50 [11] was 39.2 µM (active), the EC50 (H4) was 21.7 µM (active) and the EC50 [12] was 36.6 µM (active). The CC50 [13] was 14.1 µM (active), the CC50 [14] was > 20 µM (active) and the CC50 [15] was > 20 µM (active). The IC50 (HEK293) was > 2.5 µM (active), the IC50 [16] was > 67.5 µM (inactive) and the AC50 [17] was 26 µM (active).

In the case of C[C@H](CO)N1C[C@H](C)[C@H](CN(C)S(=O)(=O)c2ccc(Cl)cc2)Oc2c(NC(=O)c3nc4ccccc4s3)cccc2C1=O, the AC50 [9] is reported as 21.9 µM (active).

In the case of CO[C@H]1CN(C)C(=O)c2cc(NS(=O)(=O)CC(F)(F)F)ccc2OC[C@@H](C)N(Cc2cccnc2)C[C@@H]1C, the AC50 (HeLa) is reported as 21.5 µM (active).

In the case of Cc1ccc2c(c1)-c1nc3ccccc3cc1/C2=N/C1CCCCC1, the AC50 [17] is reported as 22.2 µM (active).

In the case of c1ccc2cc(CC3=NCCN3)ccc2c1, the IC50 (cells [18]) is reported as > 30 µM (inactive), the EC50 [19] is reported as 0.322 µM (active) and the IC50 [20] is reported as 3.65 µM (active). For the same compound, the EC50 (cells [21]) was > 30 µM (inactive) and the AC50 (Cytochrome P450 2D6) was 39.8 µM (inconclusive).
